Three compounds from US6818638B2, “Melvinolin derivatives” (Novartis AG, priority 1999, dated 2004) can be followed below.

The structures appear in SMILES notation.

In assay [1] the test system is oxazolone-induced allergic contact dermatitis. The assay is described as follows: Allergic Contact Dermatitis (ACD), oxazolone-sensitized mice. Format: in vivo. Here is the method: Groups of oxazolone-sensitized mice are challenged with 10 μl of 0.2 or 2.0% oxazolone on the inner surface of the right to eliciate ACD. The low concentration of oxazolone is used for testing compounds on systemic activity whereas the high concentration is applied for topical testing. The unchallenged left ears serve as normal controls and dermatitis is evaluated from the individual differences in pinnal weight, which is taken as a measure of increase in inflammatory swelling 24 h after the challenge. Dermatitis is evaluated in test- and for comparison in control groups. The test groups are treated with the test compounds either orally (twice, 2 h and immediately before challenge), subcutaneously (immediately before challenge) or topically (30 min after challenge at the site of elicitation of the ACD); the controls are treated similarly with the vehicles alone. For oral and subcutaneous administration the compounds are administered in an oil in water emulsion, for topical administration the compounds are prepared in a mixture of ethanol, acetone and dimethylacetamide. The data of the test- and the vehicle-treated control groups are statistically analysed by ANOVA followed by Dunnet T-test (normal distribution or data) or by H and U-test, respectively. […]

The target of assay [2] is T1, human LFA-1 / human ICAM-1 (Homo sapiens, UniProt P20701).
T1 construct: endogenous in cells; ICAM-1-Cκ: made in house in the baculovirus system
Put plainly: Cell free assay: binding of soluble human ICAM-1 to immobilized human LFA-1. The following applies: cell free assay Ai); read-out: IC50, inhibition of adhesion of LFA-1 to ICAM-1. Here is the method: The assay measures the binding of soluble human ICAM-1 to Immobilized human LFA-1 is purified from JY cells, a human lymphoblastoid B cell-line, by immunoaffinity chromatography as described by Dustin et al. (J. Immunol. 148, 2654-2663, 1992). ICAM-1 mouse Cκ fusion protein (ICAM-1) is produced using the baculovirus system as described by Weitz-Schmidt et al. (Anal. Biochem.238,184-190, 1996).
Purified LFA-1 is diluted 1:20 in phosphate buffered saline (PBS) containing 2 mM MgCl2, pH 7.4 and coated onto microtitre plates (Nunc) at 37° C. for 3h. Plates are blocked with 1% heat-treated BSA in PBS for 2 hours at 37° C. followed by a washing step using PBS, 2 mM MgCl2, 1% fetal calf serum, pH 7.4 (assay buffer). Compounds dissolved at 10 mM in DMSO are diluted in assay buffer and added to the plates. Biotinylated recombinant ICAM-1 in assay buffer (6 μg/ml) is added and allowed to bind at 37° C. for one hour. After incubation, wells are washed with assay buffer. Streptavidin-peroxidase diluted 1:5000 in assay buffer is added and incubated for 45 min at 37° C. Plates are then washed with assay buffer and 2.2′-azino-bis(3-ethylbenzothiazoline-6 sulfonic acid) diammonium salt substrate solution is added to each well. The reaction is stopped after 20 min and bound ICAM-1 is determined by measuring the optical density at 405 nm in a microplate reader.
In this assay, compounds of formula I inhibit adhesion of LFA-1 to ICAM-1 with an IC50≦30 μM, preferably 0.05 to 30 μM.

Assay [3] has as its system Peripheral blood mononuclear cells (PBMC). The assay is described as follows: Human Mixed Lymphocyte Reaction (MLR). Format: cell-based. The conditions noted are these: 2-way reactions, six days, 3H-thymidine, read-out: IC50, 50% inhibition of cell proliferation in MLR. Here is the method: Peripheral blood mononuclear cells (PBMC) are isolated from human buffy coats. In each experiment, PBMC from three different donors (A, B, and C) are set up in three individual 2-way reactions (A-B, A-C, B-C). Cells are cocultured for six days and proliferation is determined by pulsing the cells with ^3H-thymidine. The concentration of compounds of formula I which results in 50% inhibition of cell proliferation (IC50) is calculated.

The test system of assay [4] is thioglycollate induced neutrophil migration. The assay is described as follows: Murine Thioglycollate Induced Peritonitis. The format is in vivo, mice. The conditions noted are these: Mus musculus, Neutrophil, po; p.o.; neutrophils in peritoneal lavage after 4 hours; read-out: ED50 in test Bi).

T1 sequence (P20701 26-1170): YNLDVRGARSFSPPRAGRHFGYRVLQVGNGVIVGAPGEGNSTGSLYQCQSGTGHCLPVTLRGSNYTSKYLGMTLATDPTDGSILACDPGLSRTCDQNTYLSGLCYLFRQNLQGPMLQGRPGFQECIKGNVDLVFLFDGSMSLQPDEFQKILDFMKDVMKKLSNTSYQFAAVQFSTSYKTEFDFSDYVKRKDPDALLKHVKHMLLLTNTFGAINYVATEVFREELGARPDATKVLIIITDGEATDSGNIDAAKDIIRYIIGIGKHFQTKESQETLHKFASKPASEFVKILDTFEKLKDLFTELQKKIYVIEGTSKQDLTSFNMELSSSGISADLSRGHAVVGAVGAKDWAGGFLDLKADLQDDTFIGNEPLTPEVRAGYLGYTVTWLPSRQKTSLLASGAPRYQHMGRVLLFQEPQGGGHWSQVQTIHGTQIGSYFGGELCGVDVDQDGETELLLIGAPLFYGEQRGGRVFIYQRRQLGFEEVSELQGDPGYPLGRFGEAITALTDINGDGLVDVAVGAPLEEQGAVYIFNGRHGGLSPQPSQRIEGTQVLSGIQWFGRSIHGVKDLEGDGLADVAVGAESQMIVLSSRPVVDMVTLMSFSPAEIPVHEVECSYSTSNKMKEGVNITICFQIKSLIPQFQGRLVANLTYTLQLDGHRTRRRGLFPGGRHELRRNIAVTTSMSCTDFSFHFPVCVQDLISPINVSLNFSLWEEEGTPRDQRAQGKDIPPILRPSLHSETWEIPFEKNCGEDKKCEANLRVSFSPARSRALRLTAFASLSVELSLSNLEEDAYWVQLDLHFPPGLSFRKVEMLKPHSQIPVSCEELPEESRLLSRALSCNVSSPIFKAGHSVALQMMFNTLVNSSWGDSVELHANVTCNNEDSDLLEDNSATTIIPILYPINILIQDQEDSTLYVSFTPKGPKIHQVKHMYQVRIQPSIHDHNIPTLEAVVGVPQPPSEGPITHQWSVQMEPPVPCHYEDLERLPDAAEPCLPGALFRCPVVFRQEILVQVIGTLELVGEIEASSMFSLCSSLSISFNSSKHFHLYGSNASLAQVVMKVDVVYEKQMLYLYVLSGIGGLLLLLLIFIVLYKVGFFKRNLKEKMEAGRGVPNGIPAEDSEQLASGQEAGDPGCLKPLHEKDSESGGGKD
T1 sequence (P05107 23-769 partner): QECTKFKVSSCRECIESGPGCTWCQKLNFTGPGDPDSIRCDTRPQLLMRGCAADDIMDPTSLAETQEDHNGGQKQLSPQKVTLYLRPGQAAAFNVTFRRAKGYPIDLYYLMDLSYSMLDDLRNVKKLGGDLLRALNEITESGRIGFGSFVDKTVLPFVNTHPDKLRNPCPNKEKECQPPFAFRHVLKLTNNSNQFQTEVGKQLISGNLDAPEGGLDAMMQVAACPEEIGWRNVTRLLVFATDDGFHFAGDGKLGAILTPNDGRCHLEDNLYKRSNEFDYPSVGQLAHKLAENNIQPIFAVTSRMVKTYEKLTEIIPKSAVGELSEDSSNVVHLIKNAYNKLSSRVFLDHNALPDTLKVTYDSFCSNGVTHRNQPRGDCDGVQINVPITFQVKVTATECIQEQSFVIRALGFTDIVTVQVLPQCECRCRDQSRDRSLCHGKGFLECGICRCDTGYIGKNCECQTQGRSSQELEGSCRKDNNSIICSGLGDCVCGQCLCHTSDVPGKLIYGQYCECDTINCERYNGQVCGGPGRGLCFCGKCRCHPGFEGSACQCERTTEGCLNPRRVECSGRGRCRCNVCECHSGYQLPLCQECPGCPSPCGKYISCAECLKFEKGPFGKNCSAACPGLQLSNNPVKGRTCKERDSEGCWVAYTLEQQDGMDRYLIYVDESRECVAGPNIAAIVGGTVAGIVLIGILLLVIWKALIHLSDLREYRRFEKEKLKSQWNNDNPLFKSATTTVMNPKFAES

Consider `CC[C@H](C)C(=O)O[C@H]1C[C@@H](C)C=C2C=C[C@H](C)[C@H](CC[C@H]3C[C@@H](O)CC(=O)N3Cc3ccc4c(CO)c(OC)ccc4c3)[C@H]21` [Ex. 34, (S)2-Methyl-butyric acid (1S,3R,7S,8S,8aR)-8-{2-[(2S,4R)4-hydroxy-1-(5-hydroxymethyl-6-methoxy-naphthalen-2-ylmethyl)-6-oxo-piperidin-2-yl]-ethyl}-3,7-dimethyl-1,2,3,7,8,8a-hexahydro-naphthalen-1-yl ester], for which the “inhibition of inflammatory swelling in ACD” value in assay [1] (2x 1 mg/kg p.o.) was determined as 41%. Besides, in assay [2], the IC50 was 190 nM.

On to `CC[C@H](C)C(=O)O[C@H]1C[C@@H](C)C[C@@H]2CC[C@H](C)[C@H](CC[C@@H](O)C[C@@H](O)CC(=O)NCc3ccc(OC)c(OC)c3)[C@H]21` [compound 28, (S)-2-Methyl-butyric acid (S)-(3S,4aS,7S,8S,8aS)-8-[(3R,5)6-(3,4-dimethoxy-benzylcarbamoyl)-3,5-dihydroxy-hexyl]-3,7-dimethyl-decahydro-naphthalen-1-yl ester], for which the IC50 in assay [2] was determined as 790 nM.

The ED50 is the dose that gives a 50% effect, or the effect in half of the subjects. As for `CC[C@H](C)C(=O)O[C@H]1C[C@@H](C)C=C2C=C[C@H](C)[C@H](CC[C@@H]3C[C@H](CC(=O)NC)N(Cc4ccc(O)c(OC)c4)C(=O)O3)[C@H]21` [Ex. 2], the IC50 in assay [3] was 200 nM; in assay [2] it was 50 nM. Also, the “inhibiting effect in ACD” value in assay [1] (p.o. at a dose of 2×3 mg/kg) came out at 41%. In assay [4], the 50% effective dose (ED50) came to 0.1 µg/kg.
